What was measured:
Format in all cases: functional
[1] = test system: Human alphaherpesvirus 1; test: Antiviral activity against HSV1 H29S in african green monkey Vero cells assessed as log reduction in viral titers after 0.001 multiple round of replication at 12.5 ug/ml after 72 hrs
[2] = test system: Human alphaherpesvirus 1; test: Antiviral activity against HSV1 H29S in african green monkey Vero cells assessed as log reduction in viral titers after 1 multiple round of replication at 12.5 ug/ml after 72 hrs
[3] = test system: Human alphaherpesvirus 1; test: Antiviral activity against HSV1 H29S in african green monkey Vero cells assessed as log reduction in viral titers after 1 multiple round of replication at 25 ug/ml after 72 hrs
[4] = test system: Human alphaherpesvirus 1; test: Antiviral activity against HSV1 H29S in african green monkey Vero cells assessed as log reduction in viral titers after 1 multiple round of replication at 6.25 ug/ml after 72 hrs
[5] = test system: Human alphaherpesvirus 1; test: Antiviral activity against HSV1 H29S in african green monkey Vero cells assessed as log reduction in viral titers after 0.001 multiple round of replication at 50 ug/ml after 72 hrs
[6] = test system: Human alphaherpesvirus 1; test: Antiviral activity against HSV1 H29S in african green monkey Vero cells assessed as log reduction in viral titers after 0.001 multiple round of replication at 25 ug/ml after 72 hrs
[7] = test system: Human alphaherpesvirus 1; test: Antiviral activity against HSV1 H29S in african green monkey Vero cells assessed as log reduction in viral titers after 1 multiple round of replication at 50 ug/ml after 72 hrs
[8] = test system: Human alphaherpesvirus 1; test: Antiviral activity against HSV1 H29S in african green monkey Vero cells assessed as reduction in viral DNA synthesis after 1 multiple round of replication at 60 ug/ml after 18 hrs by agarose gel electrophoresis relative to control
[9] = test system: Human alphaherpesvirus 1; test: Antiviral activity against HSV1 H29S in african green monkey Vero cells assessed as reduction in viral DNA synthesis after 1 multiple round of replication at 30 ug/ml after 18 hrs by agarose gel electrophoresis relative to control
[10] = test system: Human alphaherpesvirus 1; test: Antiviral activity against HSV1 H29S in african green monkey Vero cells assessed as log reduction in viral titers after 0.001 multiple round of replication at 6.25 ug/ml after 72 hrs
[11] = test system: Influenza A virus; test: Antiviral activity against influenza A virus Hong Kong assessed as reduction in viral titers of reproduction at 100 ug/ml

| SMILES | Activity [1] | Activity [2] | Activity [3] | Activity [4] | Activity [5] | Activity [6] | Activity [7] | fold change (FC) [8] | fold change (FC) [9] | Activity [10] | Selectivity Index [11] |
| --- | --- | --- | --- | --- | --- | --- | --- | --- | --- | --- | --- |
| CC(C)=CCOC(=O)/C=C/c1ccc(O)c(O)c1 (stereo in doubt; form 1) [PRENYL CAFFEATE] | 1.1 | 1.5 | 2.5 | 1 | 3.1 | 2 | 2.5 | – | – | – | – |
| CC(C)=CCOC(=O)/C=C/c1ccc(O)c(O)c1 (stereo in doubt; form 2) [PRENYL CAFFEATE] | 1.25 | 2.5 | 2.8 | 1.75 | 3.6 | 3.25 | 2.8 | 32 | 8 | 0.6 | – |
| Nc1nc2c(ncn2COCCO)c(=O)[nH]1 [ACYCLOVIR] | 3 | – | – | – | 3.25 | 3 | – | – | – | 2 | – |
| COc1cc(/C=C/C(=O)OCCC(C)C)ccc1O [ISOPENTYL FERULATE] | – | – | – | – | – | – | – | – | – | – | 8 |
